Assay results from patent US6475509B1, “Covalent conjugates of sodium channel blockers and active compounds” (The University of North Carolina at Chapel Hill, priority 1999, dated 2002).
pIC50: −log10 of the molar value. Where a name gives a salt, the structure may show the parent alone.

Experiments:
[1] = test system: airway epithelial Na^+ currents; assay: Lumenal drug inhibition of airway epithelial Na+ currents, monolayers in Ussing chambers, with wash-out; format: cell-based, human or dog; settings: for Effect of washout (3) 100% = Baseline: after maximal concentration (10^-4 M), lumenal bath exchanged three times with fresh KBR; for pIC50 / Max Inhibition (%) from baseline: mucosal bath, voltage clamp; for pIC50: half-log dose addition
Experimental: In the second potency assay, airway epithelial monolayers mounted were in Ussing chambers: The principal assay consisted of tests of lumenal drug inhibition of airway epithelial Na^+ currents. Cells obtained from freshly excised human or dog airways were seeded onto SNAP-well Inserts (CoStar), cultured under air-liquid (ALI) conditions in hormonally defined media. The cells were assayed for Na^+ transport activity while bathed in Krebs bicarbonate Ringer (KBR) in the Ussing chambers under voltage clamp conditions. All test drug additions were to the mucosal bath with half-log dose addition protocols (10^−11 M-[…]). All drugs were made in standard stocks of 10^−2 M drug in DMSO. Eight preparations were typically run in parallel; two preparations/run were routinely used to assay amiloride and benzamil. After the maximal concentration (10^−4 M) was administered, the lumenal bath was exchanged three times with fresh KBR solution, which was defined as the “wash-out” effect. All data from the voltage clamps were collected via a computer interface and analyzed off-line.
Dose-effect relationships for all compounds were considered and analyzed by the Prism 3.0 program. The IC50, maximal effective concentrations, and percent washout were calculated and compared to those of amiloride and benzamil as reference compounds.
The first assay is referred to an assay of reversibility. Empirically, the percent of wash-out correlates with cellular uptake. The relationship is complex because reversibility is also a function of potency. However, reversibility is a quick and simple screen. The compounds that “reverse” best in this assay referenced to benzamil were also the least absorbed in the confocal assay, as described below.

[2] = test system: cultured airway epithelia; assay: Confocal microscopy assay of drug uptake into cultured airway epithelia; format: cell-based; settings: compound on apical surface of airway cultures, x-z confocal microscopy; relative to amiloride
Experimental: FIG. 2 is an example of a confocal microscopy assay of drug uptake into cultured airway epithelia. In this assay, a compound (10^−4 M) is placed on the airway surface and fluorescence from the cells collected by x-z scanning confocal microscopy. The images shown on the left depict fluorescence in the cells 20 minutes after exposure to amiloride, benzamil and phenamil. Quantitation of the drug uptake is graphically illustrated on the right in terms of units of fluorescence.
The second assay utilizes confocal microscopy of amiloride congener uptake: Virtually all amiloride-like molecules fluoresce in UV range. This property of these molecules was used to directly measure cellular uptake, using a x-z confocal microscope (Leica). […] Serial x-z images were obtained with time and the magnitude of fluorescence accumulating in the cell compartment quantitated and plotted. […] Two compounds from the synthesis series described above (CF-509 and CF-519) appear to fulfil this criterion. Compounds that were equipotent or greater with amiloride were tested for wash-out as described above. However, because wash-out may reflect both potency and cell uptake, the rate of accumulation of fluorescence (indexed to the specific fluorescence/emission spectrum of each compound) in the cell compartment as a function of time was also routinely measured. […]

Question: Which “Effect of washout (3) 100% = Baseline” value [1] does the source give for `N/C(=N\C(=O)c1nc(Cl)c(N)nc1N)NCc1ccc(CN/C(N)=N/C(=O)c2nc(Cl)c(N)nc2N)cc1` [CF-516, 1,4-Bis[(3,5-diamino-6-chloropyrazinoyl)guanidinol]xylylene Dihydrobromide] here?
Answer: 65%

Question: What about the pIC50 [1] of the same molecule?
Answer: 6.48

Question: And the “Max Inhibition (%) from baseline” value [1]?
Answer: 90%

Question: What does the source list for `Br.Br.N=C(NCc1cccc(CNC(=N)NC(=O)c2nc(Cl)c(N)nc2N)c1)NC(=O)c1nc(Cl)c(N)nc1N` [CF-512, 1,3-Bis[(3,5-diamino-6-chloropyrazinovl)guanidino]xylylene Dihydrobromide]?
Answer: Effect of washout (3) 100% = Baseline [1]: 60%; pIC50 [1]: 6.71; Max Inhibition (%) from baseline [1]: 92%

Question: `NC(=NCc1ccccc1)NC(=O)c1nc(Cl)c(N)nc1N` [benzamil, 3,5-diamino-6-chloro-N-(benzylaminoaminomethylene) pyrazinecarboxamide, reference compound] was tested. Which “Cellular uptake (fluorescence accumulating in the cell compartment)” value [2] did it give?
Answer: rapid
